Measured values as given in US6410563B1, “Substituted 8-arylquinoline phosphodiesterase-4 inhibitors” (Merck Frosst Canada & Co., priority 1999, dated 2002).

Assay: Formation as a metabolite in the mammalian system
Design: species or system mammal
Details: Example 19 is formed in vivo when Example 14 is administered
Experimental: For example, Example 19, (5-{(E)-2-(3-{6-[1-methyl-1-(methylsulfonyl)ethyl]-8-quinolinyl}phenyl)-1-[4-(methylslfonyl)phenyl]ehtenyl}-1,2,4-oxadiazol-3-yl)methanol; [drawing 2]
is administered. Accordingly, the present invention includes prodrugs that form PDE4 inhibitors in vivo as a metabolite after administering such prodrugs to a mammal. Further, this invention includes a method of treatment by a step of administering a prodrug to form in vivo an effective amount of a PDE4 inhibitor described by Formula I.

Compound | metabolite formation in vivo
CC(C)(c1cc(-c2cccc(/C=C(\c3ccc(S(C)(=O)=O)cc3)c3nc(CO)no3)c2)c2ncccc2c1)S(C)(=O)=O [Example 19, (5-{(E)-2-(3-{6-[1-methyl-1-(methylsulfonyl)ethyl]-8-quinolinyl}phenyl)-1-[4-(methylsulfonyl)phenyl]ethenyl}-1,2,4-oxadiazol-3-yl)methanol] | formed as a metabolite in the mammalian system
Cc1noc(/C(=C/c2cccc(-c3cc(C(C)(C)S(C)(=O)=O)cc4cccnc34)c2)c2ccc(S(C)(=O)=O)cc2)n1 [Example 14, 6-[1-methyl-1-(methylsulfonyl)ethyl]-8-(3-{(E/Z)-2-(3-methyl-1,2,4-oxadiazol-5-yl)-2-[4-(methylsulfonyl)phenyl]ethenyl}phenyl)quinoline] | formed in vivo as a metabolite
